Experimental data reported in US20190381004A1, “PHOTOPROTECTIVE COMPOSITIONS CONTAINING MALASSEZIA-DERIVED COMPOUNDS AND/OR CHEMICAL ANALOGS THEREOF” (priority 2018, published 2019).
Like-named read-outs stand apart in the source and are kept apart here.

Assays:
[1] = target: T1, arylhydrocarbon receptor (AhR) (Homo sapiens, UniProt P35869); details: cited from earlier work
T1 sequence (P35869 11-848): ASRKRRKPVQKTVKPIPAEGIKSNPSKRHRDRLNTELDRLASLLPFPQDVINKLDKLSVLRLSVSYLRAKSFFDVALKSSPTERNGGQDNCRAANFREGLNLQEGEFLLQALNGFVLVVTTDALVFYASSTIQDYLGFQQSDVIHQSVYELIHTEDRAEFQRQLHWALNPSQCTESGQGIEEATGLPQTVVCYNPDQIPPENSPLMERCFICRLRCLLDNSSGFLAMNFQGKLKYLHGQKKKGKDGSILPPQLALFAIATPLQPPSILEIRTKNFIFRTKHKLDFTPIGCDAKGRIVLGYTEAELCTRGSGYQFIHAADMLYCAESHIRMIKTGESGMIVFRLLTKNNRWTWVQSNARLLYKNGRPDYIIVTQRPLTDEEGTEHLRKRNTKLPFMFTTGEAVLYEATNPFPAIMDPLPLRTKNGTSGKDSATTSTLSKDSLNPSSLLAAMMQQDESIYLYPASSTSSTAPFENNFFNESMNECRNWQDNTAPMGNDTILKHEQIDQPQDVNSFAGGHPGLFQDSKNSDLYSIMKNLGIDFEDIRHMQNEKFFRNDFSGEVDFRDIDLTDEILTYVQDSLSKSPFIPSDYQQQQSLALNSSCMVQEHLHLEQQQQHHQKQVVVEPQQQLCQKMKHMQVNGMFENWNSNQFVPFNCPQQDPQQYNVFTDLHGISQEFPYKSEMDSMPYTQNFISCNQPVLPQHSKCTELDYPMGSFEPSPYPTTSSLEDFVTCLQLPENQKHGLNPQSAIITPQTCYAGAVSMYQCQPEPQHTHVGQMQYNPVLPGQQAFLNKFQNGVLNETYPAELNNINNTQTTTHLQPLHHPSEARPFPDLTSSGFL

UV-induced erythema = assay: In vivo photoprotection proof of concept: UVB irradiation of treated skin sites, erythema assessment; set-up: species or system human; details: one Skin Type IV subject
From the text: The Malassezin 1% formulation used in this study contained the following ingredients: Water (aqua)—65.939%; Dimethyl isosorbide—20.000%; Olive Oil Glycereth-8 Esters—3.000%; Glycerin—2.991%; Coconut Alkanes—2.700%; Hydroxyethyl Acrylate/Sodium Acryloyldimethyl Taurate Copolymer—1.700%; Malassezin—1.000%; Pentylene Glycol—1.000%; Phenoxyethanol—0.640%; Coco-Caprylate/Caprate—0.300%; Caprylyl Glycol—0.200%; Chlorphenesin—0.160%; Sorbitan Isostearate—0.140%; Tocopherol—0.100%; Polysorbate 60-0.080%; and Disodium EDTA—0.050%.
A Skin Type IV […] was included in this Proof of Concept study.
A template of 6 squares was placed on the lower left back (1.5 cm×1.5 cm) of the test subject.
Twenty-four hours after irradiation, the subject returned for MED assessment.
A second right lower square was treated twice daily from day 4 to day 7, and a third medial square for one application on day 7. The product vehicle was applied for 7 days twice daily on the left back. The subject returned to the research center for irradiation on day 7. Each test site was irradiated with 120 mJ of UVB exposure. The subject returned in 24 hours for assessment of phototoxicity/photoprotection.
The subject continued the experiment, receiving Malassezin 1% for a total of 14 days. […]

[2] = cited from earlier work; for sun protection factor (SPF): cream
[3] = system: Candida albicans and staphylococci; details: cited from earlier work

SMILES | AhR agonist activity [1] | UV-protective properties (conclusion of study) (UV-induced erythema) | sun protection factor (SPF) ([2]; pityriacitrin concentration 1.25%) | sun protection factor (SPF) ([2]; pityriacitrin concentration 2.5%) | sun protection factor (SPF) ([2]; pityriacitrin concentration 5%) | UV protective effect overall ([2]; in vitro and in vivo test methods in humans) | UV-protective effect on microflora ([3]; Candida albicans and staphylococci) | toxicity to microflora ([3]; ranges tested)
O=C1Nc2ccccc2/C1=C1/Nc2ccccc2C1=O [Indirubin] | known agonist |  |  |  |  |  |  | 
O=Cc1c(Cc2c[nH]c3ccccc23)[nH]c2ccccc12 [Malassezin, 2-(1H-indol-3-ylmethyl)-1H-indole-3-carbaldehyde] | known agonist | UV-protective properties |  |  |  |  |  | 
O=C(c1c[nH]c2ccccc12)c1nccc2c1[nH]c1ccccc12 [Pityriacitrin] |  |  | 1.4 | 1.5 | 1.7 | very weak | UV-protective effect | no toxicity
